According to patent US9765035B2 (priority 2013, dated 2017):
Read-outs that look alike come from different tables or passages of the source.

Target: T1, human PRMT1 (Homo sapiens, UniProt Q99873)
T1 construct: GST-tagged PRMT1; made in house; host or cells: High Five insect cells (baculovirus)
Assay: biochemical
Text: General Materials. S-adenosylmethionine (SAM), S-adenosylhomocysteine (SAH), bicine, Tween20, dimethylsulfoxide (DMSO), bovine skin gelatin (BSG), and Tris(2-carboxyethyl)phosphine hydrochloride solution (TCEP) were purchased from Sigma-Aldrich at the highest level of purity possible. ^3H-SAM was purchase from American Radiolabeled Chemicals with a specific activity of 80 Ci/mmol. 384-well streptavidin Flashplates were purchased from PerkinElmer.
Substrates. Peptide representative of human histone H4 residues 36-50 was synthesized with an N-terminal linker-affinity tag motif and a C-terminal amide cap by 21st Century Biochemicals. The peptide was purified by high-performance liquid chromatography (HPLC) to greater than 95% purity and confirmed by liquid chromatography mass spectrometry (LC-MS). The sequence was Biot-Ahx-[…]-amide (SEQ ID NO.:1).
Molecular Biology: Full-length human PRMT1 isoform 1 (NM_001536.5) transcript clone was amplified from an HEK 293 cDNA library, incorporating flanking 5′ sequence encoding a FLAG tag ([…]) (SEQ ID NO.:2) fused directly to Met 1 of PRMT1. The amplified gene was subcloned into pFastBacI (Life Technologies) modified to encode an N-terminal GST tag and a TEV cleavage sequence
Protein Expression. Recombinant baculovirus were generated according to Bac-to-Bac kit instructions (Life Technologies). Protein over-expression was accomplished by infecting exponentially growing High Five insect cell culture at 1.5×10^6 cell/ml with 1:100 ratio of virus. Infections were carried out at 27° C. for 48 hours, harvested by centrifugation, and stored at −80° C. for purification.
Protein Purification. […] GST-tagged PRMT1 was eluted with 50 mM Tris, 2 mM glutathione, pH 7.8, dialysed in buffer A and concentrated to 1 mg/mL. The purity of recovered protein was 73%. Reference: Wasilko, D. J. and S. E. Lee: “TIPS: titerless infected-cells preservation and scale-up” Bioprocess J., 5 (2006), pp. 29-32.
General Procedure for PRMT1 Enzyme Assays on Peptide Substrates. The assays were all performed in a buffer consisting of 20 mM Bicine (pH=7.6), 1 mM TCEP, 0.005% BSG, and 0.002% Tween 20, prepared on the day of use. Compounds in 100% DMSO (1 ul) were spotted into a polypropylene 384-well V-bottom plates (Greiner) using a Platemate Plus outfitted with a 384-channel head (Thermo Scientific). DMSO (1 ul) was added to Columns 11, 12, 23, 24, rows A-H for the maximum signal control and 1 ul of SAH, a known product and inhibitor of PRMT1, was added to columns 11, 12, 23, 24, rows I-P for the minimum signal control. A cocktail (40 ul) containing the PRMT1 enzyme was added by Multidrop Combi (Thermo-Fisher). The compounds were allowed to incubate with PRMT1 for 30 min at room temperature, then a cocktail (10 ul) containing SAM and peptide was added to initiate the reaction (final volume=51 ul). The final concentrations of the components were as follows: PRMT1 was 0.5 nM, ^3H-SAM was 200 nM, non-radiolabeled SAM was 1.5 uM, peptide was 20 nM, SAH in the minimum signal control wells was 1 mM, and the DMSO concentration was 2%. The assays were stopped by the addition of non-radiolabeled SAM (10 ul) to a final concentration of 300 uM, which dilutes the ^3H-SAM to a level where its incorporation into the peptide substrate is no longer detectable. 50 ul of the reaction in the 384-well polypropylene plate was then transferred to a 384-well Flashplate and the biotinylated peptides were allowed to bind to the streptavidin surface for at least 1 hour before being washed once with 0.1% Tween20 in a Biotek EL×405 plate washer. The plates were then read in a PerkinElmer TopCount plate reader to measure the quantity of ^3H-labeled peptide bound to the Flashplate surface, measured as disintegrations per minute (dpm) or alternatively, referred to as counts per minute (cpm).
Where dpm=disintegrations per minute, cmpd=signal in assay well, and min and max are the respective minimum and maximum signal controls. […]

[1] = biochemical evaluation, peptide substrate, read-out: PRMT1 IC50
[2] = single experiment or average of multiple experiments, read-out: PRMT1 biochemical evaluation (numerical)

T1 sequence (Q99873 other isoform, or with tags, fused parts or gaps): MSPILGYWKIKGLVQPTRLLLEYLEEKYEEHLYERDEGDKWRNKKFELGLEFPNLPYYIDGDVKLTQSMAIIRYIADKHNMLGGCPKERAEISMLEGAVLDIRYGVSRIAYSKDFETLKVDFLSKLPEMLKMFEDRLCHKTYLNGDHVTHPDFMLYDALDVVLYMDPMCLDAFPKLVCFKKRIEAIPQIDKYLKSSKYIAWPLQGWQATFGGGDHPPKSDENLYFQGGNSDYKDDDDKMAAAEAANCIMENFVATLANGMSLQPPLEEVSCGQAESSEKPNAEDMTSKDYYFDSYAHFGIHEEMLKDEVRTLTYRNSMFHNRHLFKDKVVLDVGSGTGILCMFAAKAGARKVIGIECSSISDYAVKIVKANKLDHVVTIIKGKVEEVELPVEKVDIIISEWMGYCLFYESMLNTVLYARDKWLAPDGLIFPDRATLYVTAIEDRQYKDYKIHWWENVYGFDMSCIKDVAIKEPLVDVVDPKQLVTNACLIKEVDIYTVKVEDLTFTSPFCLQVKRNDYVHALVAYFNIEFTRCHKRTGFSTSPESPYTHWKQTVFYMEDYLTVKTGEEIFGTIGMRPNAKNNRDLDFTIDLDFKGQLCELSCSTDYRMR

SMILES | IC50 [1] [nM] | IC50 [2] [nM]
CNCCN(C)Cc1n[nH]c2ccc(C3=CCCCC3)cc12 [Compound 48] | ≤ 100 | 34
CNCCN(C)Cc1n[nH]c2ccc(Oc3ccccc3C(F)(F)F)cc12 [Compound 49] | 3010 to 10000 | 15.7
CNCCN(C)Cc1n[nH]c2ccc(OCC3CCOCC3)cc12 [Compound 50] | 3010 to 10000 | 11
CNCCN(C)Cc1n[nH]c2ccc(OCC3CCN(C(C)=O)CC3)cc12 [Compound 51] | 1010 to 3000 | 5520
CNCCN(C)Cc1n[nH]c2ccc(OCC3CCCC3)cc12 [Compound 52] | 1010 to 3000 | 3690
CNCCN(C)Cc1c2cc(OCc3ccc(C#N)cc3)ccc2nn1C1CCOCC1 [Compound 53] | 3010 to 10000 | 1760
CNCCN(C)Cc1n[nH]c2ccc(Oc3ccc(OC)cc3)cc12 [Compound 59] | < 100 | 101
CNCCN(C)Cc1nn(C(C)C)c2ccc(OCc3ccc(C#N)cc3)cc12 [Compound 62] | 1010 to 3000 | 56.5
CCOc1ccc2[nH]nc(CN(C)CCNC)c2c1 [Compound 63] | 101 to 1000 | 98.6
CNCCN(C)Cc1n[nH]c2ccc(OC(C)C)cc12 [Compound 64] | ≤ 100 | 2630
CCCOc1ccc2[nH]nc(CN(C)CCNC)c2c1 [Compound 65] | ≤ 100 | 128
CNCCN(C)Cc1n[nH]c2ccc(OCc3cccc(C(C)(C)C)c3)cc12 [Compound 74] | 101 to 1000 | 23

Continued, values first:

IC50 [1] [nM] | IC50 [2] [nM] | SMILES
101 to 1000 | 2000 | CNCCN(C)Cc1n[nH]c2ccc(OCC3CCCCC3)cc12 [Compound 54]
< 100 | 6550 | CNCCN(C)Cc1n[nH]c2ccc(Oc3ccc(C)cc3)cc12 [Compound 55]
< 100 | 994 | CNCCN(C)Cc1n[nH]c2ccc(Oc3ccccc3OC(C)C)cc12 [Compound 56]
101 to 1000 | 43.3 | CNCCN(C)Cc1n[nH]c2ccc(Oc3ccc(Cl)cc3)cc12 [Compound 57]
101 to 1000 | 57.9 | CNCCN(C)Cc1n[nH]c2ccc(OC3CCN(C(C)=O)CC3)cc12 [Compound 58, 1-(4-((3-((methyl(2-(methylamino)ethyl)amino)methyl)-1H-indazol-5-yl)oxy)piperidin-1-yl)ethan-1-one]
< 100 | 353 | CNCCN(C)Cc1n[nH]c2ccc(Oc3ccccc3C)cc12 [Compound 60]
< 100 | 40.8 | CNCCN(C)Cc1n[nH]c2ccc(Oc3ccc(OC(C)C)cc3)cc12 [Compound 61]
< 100 | 35 | CNCCN(C)Cc1n[nH]c2ccc(OCc3cccc(C(N)=O)c3)cc12 [Compound 66]
< 100 | 24.8 | CNCCN(C)Cc1n[nH]c2ccc(Oc3cccc(OC(C)C)c3)cc12 [Compound 67]
101 to 1000 | 91.5 | CNCCN(C)Cc1n[nH]c2ccc(OCc3ccc(C(F)(F)F)cc3)cc12 [Compound 68]
101 to 1000 | 30.3 | CNCCN(C)Cc1n[nH]c2ccc(OCc3ccc(C(N)=O)cc3)cc12 [Compound 69]
101 to 1000 | 188 | CNCCN(C)Cc1n[nH]c2ccc(OCc3cccc(NC(C)=O)c3)cc12 [Compound 70]
101 to 1000 | 203 | CNCCN(C)Cc1n[nH]c2ccc(OCc3ccc(C(C)(C)C)cc3)cc12 [Compound 71]
< 100 | 182 | CNCCN(C)Cc1n[nH]c2ccc(OCc3cccc(C(F)(F)F)c3)cc12 [Compound 72]
< 100 | 143 | CNCCN(C)Cc1n[nH]c2ccc(OCc3cccc(C(C)=O)c3)cc12 [Compound 73]
